Read-outs that look alike come from different tables or passages of the source.
How the values were obtained:
[1] = molecular target: C-Raf kinase (SEQ. ID NO: 3) (Homo sapiens (Human), UniProt P04049, Y340D/Y341D); assay: Biochemical Assay for C-Raf (1); details: Table J
Method: Biochemical Assay for C-Raf (1)
(§1) Activity of C-Raf kinase (SEQ. ID NO: 3) was determined spectroscopically using a coupled pyruvate kinase/lactate dehydrogenase assay that continuously monitors the ATP hydrolysis-dependent oxidation of NADH (e.g., Schindler et al., Science, 2000, 289, 1938-1942). Assays were conducted in 384-well plates (100 μL final volume) using 0.43 nM C-Raf (Sigma), 1.5 units pyruvate kinase, 2.1 units lactate dehydrogenase, 1 mM phosphoenol pyruvate, 0.28 mM NADH, 30.1 nM MEK (SignalChem), and 1 mM ATP in assay buffer (100 mM Tris, Ph 7.5, 15 mM MgCl2, 0.5 mM DTT, 0.1% octyl-glucoside, 0.002% (w/v) BSA, and 0.002% Triton X-100). Inhibition of C-Raf was measured by adding serial diluted test compound (final assay concentration of 1% DMSO). A decrease in absorption at 340 nm was monitored continuously for 6 h at 30° C. on a multi-mode microplate reader (BioTek). The reaction rate was calculated using the 4 to 5 h time frame. The reaction rate at each concentration of compound was converted to percent inhibition using controls (i.e., reaction with no test compound and reaction with a known inhibitor) and IC50 values were calculated by fitting a four-parameter sigmoidal curve to the data using Prism (GraphPad software).

[2] = molecular target: B-Raf (V600E) (SEQ. ID NO: 4) kinase (Homo sapiens (Human), UniProt P15056, V600E); assay: Biochemical Assay for B-Raf (V600E) (1); details: Table J, BRAF V600E
Method: Biochemical Assay for B-Raf (V600E) (1)
Activity of B-Raf (V600E) (SEQ. ID NO: 4) kinase was determined spectroscopically using a coupled pyruvate kinase/lactate dehydrogenase assay that continuously monitors the ATP hydrolysis-dependent oxidation of NADH (e.g., Schindler et al., Science, 2000, 289, 1938-1942). Assays were conducted in 384-well plates (100 μL final volume) using 0.03 nM B-Raf (SignalChem), 1.5 units pyruvate kinase, 2.1 units lactate dehydrogenase, 1 mM phosphoenol pyruvate, 0.28 mM NADH, 30.1 nM MEK (SignalChem), and 1 mM ATP in assay buffer (100 mM Tris, Ph 7.5, 15 mM MgCl2, 0.5 mM DTT, 0.1% octyl-glucoside, 0.002% (w/v) BSA, and 0.002% Triton X-100). Inhibition of B-Raf (V600E) was measured by adding serial diluted test compound (final assay concentration of 1% DMSO). A decrease in absorption at 340 nm was monitored continuously for 6 h at 30° C. on a multi-mode microplate reader (BioTek). The reaction rate was calculated using the 3 to 4 h time frame. The reaction rate at each concentration of compound was converted to percent inhibition using controls (i.e., reaction with no test compound and reaction with a known inhibitor) and IC50 values were calculated by fitting a four-parameter sigmoidal curve to the data using Prism (GraphPad software).

[3] = molecular target: B-Raf kinase (SEQ. ID NO: 2) (Homo sapiens (Human), UniProt P15056); assay: Biochemical Assay for B-Raf (1); details: Table J
Method: Biochemical Assay for B-Raf (1)
as §1, with “B-Raf” for “C-Raf”, “2)” for “3)”, “0.13” for “0.43”

A375 cells = assay: A375 Cell Proliferation Assay (1); type: cell-based; details: Homo sapiens, A-375
Method: A375 Cell Proliferation Assay (1)
A375 cells (catalog (#CRL-1619) are obtained from the American Type Culture Collect (ATTC, Manassas, VA). Briefly, cells were grown in DMEM High Glucose supplemented with 10% characterized fetal bovine serum (Invitrogen, Carlsbad, CA) and 1% Penicillin/Streptomycin/L-Glutamine at 37° C., 5% CO2, and 95% humidity. Cells are expanded until reaching 70-95% confluency at which point they are sub-cultured or harvested for assay use. A serial dilution of test compound is dispensed into a 96-well black clear bottom plate in triplicate. Two thousand five hundred cells are added per well in 200 μL complete growth medium in the 96-well plate. Plates are incubated for 67-72 h at 37° C., 5% CO2, and 95% humidity. At the end of the incubation, 40 μL of a 440 μM solution of resazurin (Sigma, St. Louis, MO) in PBS is added to each well of the plate and plates are incubated for an additional 5-6 h at 37° C., 5% CO2, and 95% humidity. Plates are read on a Synergy2 or equivalent reader (Biotek, Winooski VT) using an excitation of 540 nm and an emission of 600 nm. Data is analyzed using Prism software (GraphPad, San Diego, CA) to calculate IC50 values.

[4] = molecular target: A-Raf kinase (SEQ. ID No: 1) (Homo sapiens (Human), UniProt P10398, Y301D/Y302D); assay: Biochemical Assay for A-Raf (1); details: Table J
Method: Biochemical Assay for A-Raf (1)
as §1, with “A-Raf” for “C-Raf”, “No: 1)” for “NO: 3)”, “5.55” for “0.43”, “pH” for “Ph”

[5] = assay version (1), read-out: CRAF (1) IC50
[6] = assay version (1), read-out: BRAF VE (1) IC50
[7] = assay version (1), read-out: BRAF (1) IC50
[8] = assay version (1), read-out: ARAF (1) IC50

B-Raf kinase (SEQ. ID NO: 2), sequence (P15056 416-766): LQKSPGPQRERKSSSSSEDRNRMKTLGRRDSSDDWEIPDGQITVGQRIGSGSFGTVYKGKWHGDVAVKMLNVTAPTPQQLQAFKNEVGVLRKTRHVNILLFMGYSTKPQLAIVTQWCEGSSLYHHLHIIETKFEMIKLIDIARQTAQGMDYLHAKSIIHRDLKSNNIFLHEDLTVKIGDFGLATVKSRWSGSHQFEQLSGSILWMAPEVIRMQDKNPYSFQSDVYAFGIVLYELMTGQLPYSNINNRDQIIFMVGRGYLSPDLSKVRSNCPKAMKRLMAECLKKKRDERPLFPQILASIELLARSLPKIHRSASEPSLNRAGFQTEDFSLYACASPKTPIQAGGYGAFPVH
B-Raf (V600E) (SEQ. ID NO: 4) kinase, sequence (P15056 416-766 V600E): as the sequence (P15056 416-766) above, with V185E counted along it
C-Raf kinase (SEQ. ID NO: 3), sequence (P04049 307-648 Y340D/Y341D): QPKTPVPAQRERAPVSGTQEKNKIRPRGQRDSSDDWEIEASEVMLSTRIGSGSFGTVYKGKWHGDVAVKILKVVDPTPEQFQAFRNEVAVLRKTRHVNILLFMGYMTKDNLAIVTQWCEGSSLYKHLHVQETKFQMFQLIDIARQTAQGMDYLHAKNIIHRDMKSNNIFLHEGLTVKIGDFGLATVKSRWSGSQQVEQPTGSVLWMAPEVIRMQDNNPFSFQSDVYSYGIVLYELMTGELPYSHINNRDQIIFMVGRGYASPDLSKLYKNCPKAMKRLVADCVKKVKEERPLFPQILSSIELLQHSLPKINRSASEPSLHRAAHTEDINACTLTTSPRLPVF
A-Raf kinase (SEQ. ID No: 1), sequence (P10398 other isoform, or with tags, fused parts or gaps Y301D (already in the parent)/Y302D (already in the parent)): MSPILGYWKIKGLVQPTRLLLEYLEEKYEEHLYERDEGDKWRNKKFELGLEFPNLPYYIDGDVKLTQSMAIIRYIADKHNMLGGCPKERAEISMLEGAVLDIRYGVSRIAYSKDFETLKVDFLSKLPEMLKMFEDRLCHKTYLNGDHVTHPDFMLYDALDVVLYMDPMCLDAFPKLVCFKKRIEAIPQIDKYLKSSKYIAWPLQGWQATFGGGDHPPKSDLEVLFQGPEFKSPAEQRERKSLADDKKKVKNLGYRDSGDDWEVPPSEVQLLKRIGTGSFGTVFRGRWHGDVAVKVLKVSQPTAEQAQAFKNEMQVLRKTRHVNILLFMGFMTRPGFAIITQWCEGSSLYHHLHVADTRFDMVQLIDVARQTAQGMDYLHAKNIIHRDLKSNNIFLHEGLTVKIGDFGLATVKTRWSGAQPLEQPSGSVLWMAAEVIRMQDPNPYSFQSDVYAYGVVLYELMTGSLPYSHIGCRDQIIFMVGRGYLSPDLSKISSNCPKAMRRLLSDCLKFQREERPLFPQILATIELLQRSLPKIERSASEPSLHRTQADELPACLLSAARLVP

| Structure (SMILES) | IC50 [1, 5] | IC50 [2, 6] | IC50 [3, 7] | IC50 (A375 cells) | IC50 [4, 8] | IC50 ([1]; biochemical assay (1), read-out: CRAF (1)) | IC50 ([2]; biochemical assay (1), read-out: BRAF VE (1)) | IC50 ([3]; biochemical assay (1), read-out: BRAF (1)) | IC50 ([4]; biochemical assay (1), read-out: ARAF (1)) |
| --- | --- | --- | --- | --- | --- | --- | --- | --- | --- |
| CNC(=O)c1cc(-c2cc(-c3cc(NC(=O)c4ccnc(C(F)F)c4)c(F)cc3C)cc(=O)n2C)ccn1 [Example 115] | 1000 to 10000 nM | 100 to 500 nM | 1000 to 10000 nM | – | 1000 to 10000 nM | – | – | – | – |
| CC(=O)Nc1cc(-c2cc(-c3cc(NC(=O)c4ccnc(C(F)(F)F)c4)ccc3C)nn(C)c2=O)ccn1 [Example 34] | 1000 to 10000 nM | 1000 to 10000 nM | 1000 to 10000 nM | – | 1000 to 10000 nM | – | – | – | – |
| Cc1ncc(NC(=O)C2CCOCC2)cc1-c1cccc(-c2cc(NC(=O)C3CC3)ncn2)c1 [Example 349] | 500 to 1000 nM | 100 to 500 nM | 1000 to 10000 nM | – | 1000 to 10000 nM | – | – | – | – |
| Cc1ncc(NC(=O)CC2COC2)cc1-c1cccc(-c2cc(NC(=O)C3CC3)ncn2)c1 [Example 356] | 1000 to 10000 nM | 500 to 1000 nM | 1000 to 10000 nM | – | 1000 to 10000 nM | – | – | – | – |
| CNC(=O)c1cc(-c2cc(-c3cc(NC(=O)c4ccnc(C(F)(F)F)c4)ccc3C)nn(C)c2=O)ccn1 [Example 51] | 1000 to 10000 nM | 1000 to 10000 nM | 1000 to 10000 nM | – | 1000 to 10000 nM | – | – | – | – |
| Cc1ncc(NC(=O)C2CCN(C)C2)cc1-c1nccc(-c2ccnc(NC(=O)C3CC3)c2)n1 (stereo not shown) [Example 334] | 1000 to 10000 nM | 1000 to 10000 nM | 1000 to 10000 nM | – | 1000 to 10000 nM | – | – | – | – |
| Cc1ncc(NC(=O)C2CCC3(CC2)COC3)cc1-c1nccc(-c2ccnc(NC(=O)C3CC3)c2)n1 [Example 338] | 1000 to 10000 nM | 500 to 1000 nM | 1000 to 10000 nM | – | 1000 to 10000 nM | – | – | – | – |
| Cc1ncc(NC(=O)CN2CCOCC2)cc1-c1cccc(-c2cc(NC(=O)C3CC3)ncn2)c1 [Example 353] | 500 to 1000 nM | 100 to 500 nM | 1000 to 10000 nM | – | 1000 to 10000 nM | – | – | – | – |
| Cc1ncc(NC(=O)CC2COC2)cc1-c1nccc(-c2ccnc(NC(=O)C3CC3)c2)n1 [Example 355] | 1000 to 10000 nM | 1000 to 10000 nM | 1000 to 10000 nM | – | 1000 to 10000 nM | – | – | – | – |
| COC(C)(C)C(=O)Nc1cc(-c2cccc(-c3cc(NC(=O)c4ccnc(C(C)(C)C#N)c4)cnc3C)c2)ncn1 [Example 208] | 500 to 1000 nM | 100 to 500 nM | 1000 to 10000 nM | – | 1000 to 10000 nM | – | – | – | – |
| Cc1ccc(NC(=O)Cn2cc(C(C)C)nn2)cc1-c1cncc(-c2cc(N)ncn2)c1 [Example 426] | – | – | – | – | – | 500 to 1000 nM | 1000 to 10000 nM | 1000 to 10000 nM | 1000 to 10000 nM |
| CO[C@H]1CC[C@H](C(=O)Nc2cnc(C)c(-c3cccc(-c4ccnc(NC(=O)C5CC5)c4)n3)c2)CC1 [Example 343] | 500 to 1000 nM | 100 to 500 nM | 1000 to 10000 nM | – | 1000 to 10000 nM | – | – | – | – |
| Cc1ncc(NC(=O)C2CCOC2)cc1-c1nccc(-c2ccnc(NC(=O)C3CC3)c2)n1 (stereo not shown) [Example 335] | 1000 to 10000 nM | 1000 to 10000 nM | 1000 to 10000 nM | – | 1000 to 10000 nM | – | – | – | – |

Next, values leading:

| IC50 [1, 5] | IC50 [2, 6] | IC50 [3, 7] | IC50 (A375 cells) | IC50 [4, 8] | IC50 ([1]; biochemical assay (1), read-out: CRAF (1)) | IC50 ([2]; biochemical assay (1), read-out: BRAF VE (1)) | IC50 ([3]; biochemical assay (1), read-out: BRAF (1)) | IC50 ([4]; biochemical assay (1), read-out: ARAF (1)) | Structure (SMILES) |
| --- | --- | --- | --- | --- | --- | --- | --- | --- | --- |
| ≤ 100 nM | ≤ 100 nM | 100 to 500 nM | 100 to 500 nM | 1000 to 10000 nM | – | – | – | – | Cc1ccc(NC(=O)c2ccnc(C(C)(C)C#N)c2)cc1-c1ccnc(-c2ccnc(NC(=O)C3(C)CC3)c2)n1 [Example 248] |
| 500 to 1000 nM | 100 to 500 nM | 1000 to 10000 nM | – | 1000 to 10000 nM | – | – | – | – | COC(C)(C)C(=O)Nc1cc(-c2cc(-c3cc(NC(=O)c4ccnc(C(C)(C)C#N)c4)cnc3C)ccn2)ccn1 [Example 209] |
| 100 to 500 nM | ≤ 100 nM | 500 to 1000 nM | – | 1000 to 10000 nM | – | – | – | – | CNC(=O)c1cc(-c2cncc(-c3cc(NC(=O)c4cc(C(F)(F)F)cc(CN(C)C)n4)ccc3C)n2)ccn1 [Example 147] |
| 100 to 500 nM | ≤ 100 nM | 500 to 1000 nM | – | 1000 to 10000 nM | – | – | – | – | COC1(C(=O)Nc2cc(-c3cccc(-c4cc(NC(=O)c5ccnc(C(C)(C)C#N)c5)ccc4C)c3)ncn2)CC1 [Example 243] |
| ≤ 100 nM | ≤ 100 nM | ≤ 100 nM | – | 1000 to 10000 nM | – | – | – | – | Cc1ccc(NC(=O)c2cc(C(F)(F)F)ccn2)cc1-c1ccnc(-c2ccnc(NC(=O)C3CC3)c2)n1 [Example 188] |
| ≤ 100 nM | ≤ 100 nM | 100 to 500 nM | – | 1000 to 10000 nM | – | – | – | – | CCOc1ncc(-c2cc(NC(=O)c3ccnc(C(C)(C)C#N)c3)ccc2C)cc1-c1ccnc(C(=O)NC)c1 [Example 260] |
| ≤ 100 nM | ≤ 100 nM | ≤ 100 nM | – | 100 to 500 nM | – | – | – | – | Cc1ccc(NC(=O)c2ccnc(C3(C#N)CC3)c2)cc1-c1cncc(-c2ccnc(NC(=O)C3CC3)c2)n1 [Example 183] |
| ≤ 100 nM | ≤ 100 nM | ≤ 100 nM | – | 100 to 500 nM | – | – | – | – | Cc1ccc(NC(=O)c2ccnc(C(C)(C)F)c2)cc1-c1nccc(-c2ccnc(NC(=O)C3CC3)c2)n1 [Example 232] |

— US12319655B2, “RAF kinase inhibitors and methods of use thereof” (Deciphera Pharmaceuticals, LLC, priority 2021, dated 2025)
